The results in this text go back to patent US20170304288A1, “Formulations of Methionine Aminopeptidase Inhibitors for Treating Infectious Diseases” (Texas Southern University, priority 2013, published 2017).

Structures are written as SMILES.

In the assay the test system is M. tuberculosis HN 3409. In kind it is cell-based, Mycobacterium tuberculosis. The following applies: preliminary results, 29 days.
Take `Cc1nc(-c2ccccn2)nc(N(C)Cc2ccccc2)c1Cl` [drawing 29]: the “Multi-Drug Resistant Tuberculosis Strain HN3409” value is less than 1.0 µg/mL. On to `O=C1C(Br)=C(Br)C(=O)c2ccccc21`, for which the “Multi-Drug Resistant Tuberculosis Strain HN3409” value is less than 25.0 µg/mL.

For the molecule `Oc1c(I)cc(Cl)c2cccnc12` [drawing 32], the “Multi-Drug Resistant Tuberculosis Strain HN3409” value was less than 10.0 µg/mL. Then `O=C(N/N=C/c1c(O)ccc2ccccc12)c1ccncc1` [drawing 27], with greater than 25.0 µg/mL. For `Oc1ccccc1/C=N/Nc1ncnc2sc3c(c12)CCCC3` [drawing 28], the “Multi-Drug Resistant Tuberculosis Strain HN3409” value was greater than 25.0 µg/mL.

Regarding `O=C1C(Cl)=C(Cl)C(=O)c2ccccc21`, the “Multi-Drug Resistant Tuberculosis Strain HN3409” value was less than 10.0 µg/mL. Consider `Oc1c(Br)cc(Cl)c2cccnc12` [drawing 31], for which the “Multi-Drug Resistant Tuberculosis Strain HN3409” value is less than 5.0 µg/mL.

With `Oc1c(Cl)cc(Cl)c2cccnc12`, the “Multi-Drug Resistant Tuberculosis Strain HN3409” value is less than 1.0 µg/mL.
